Results reported in the supplement of paper PMC11061612.

Assays:
BT-20 (Breast Carcinoma) = experiment: Bliss excess, mean over the matrix (fraction); higher = more synergy
Method in brief: (§1)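 Cell lines in DMEM/F12 or RPMI with 10% FBS were plated in 1536-well plates, held 24 hours at 37°C, 5% CO2, then given two-drug dose matrices for 72 hours (DMSO typically 0.2%). Viability was read by CellTiter-Glo 2.0 luminescence and scaled as inhibition from 0 (vehicle wells) to 1 (blank wells). Combination Emax is the second-highest inhibition in the matrix; Bliss excess is observed combination effect minus expected EA + EB − EA·EB, EA and EB being single-agent effects.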

[1] = test system: DG-75 (Burkitt's Lymphoma); experiment: as above
Method in brief: as §1

[2] = test system: EBC-1 (Squamous Cell Lung Carcinoma); experiment: as above
Method in brief: as §1

[3] = test system: EMC-BAC-2 (Non-Small Cell Lung Carcinoma); experiment: as above
Method in brief: as §1

GI-1 (Glioblastoma) = experiment: as above
Method in brief: as §1

GOTO (Neuroblastoma) = experiment: as above
Method in brief: as §1

[4] = test system: HuP-T3 (Pancreatic Carcinoma); experiment: as above
Method in brief: as §1

[5] = test system: KP-2 (Pancreatic Carcinoma); experiment: as above
Method in brief: as §1

[6] = test system: KU-19-19 (Bladder Carcinoma); experiment: as above
Method in brief: as §1

NH-12 (Neuroblastoma) = experiment: as above
Method in brief: as §1

[7] = test system: OCUM-1 (Gastric Carcinoma); experiment: as above
Method in brief: as §1

[8] = test system: TGBC11TKB (Gastric Carcinoma); experiment: as above
Method in brief: as §1

[9] = test system: VMRC-LCD (Lung Adenocarcinoma); experiment: as above
Method in brief: as §1

[10] = test system: JHH-7 (Hepatocellular Carcinoma); experiment: combination Emax (second highest fraction inhibited in the dose matrix, 72 h); higher = more inhibition; extreme values may be limits of the assay
Method in brief: as §1

[11] = test system: KU-19-19 (Bladder Carcinoma); experiment: as above
Method in brief: as §1

[12] = test system: NCI-H2405 (Lung Adenocarcinoma); experiment: as above
Method in brief: as §1

[13] = test system: NCI-H322M (Lung Adenocarcinoma); experiment: as above
Method in brief: as §1

[14] = test system: OCUB-M (Breast Carcinoma); experiment: as above
Method in brief: as §1

[15] = test system: SCC-3 (B-Cell Non-Hodgkin's Lymphoma); experiment: as above
Method in brief: as §1

[16] = test system: SCC-9 (Oral Cavity Carcinoma); experiment: as above
Method in brief: as §1
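For Bliss excess, mean over the matrix in this document: after 72 h of two-drug dosing.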

Compound	Bliss excess (BT-20 (Breast Carcinoma))	Bliss excess [1]	Bliss excess [2]	Bliss excess [3]	Bliss excess (GI-1 (Glioblastoma))	Bliss excess (GOTO (Neuroblastoma))	Bliss excess [4]	Bliss excess [5]	Bliss excess [6]	Bliss excess (NH-12 (Neuroblastoma))	Bliss excess [7]	Bliss excess [8]	Bliss excess [9]	combination Emax [10]	combination Emax [11]	combination Emax [12]	combination Emax [13]	combination Emax [14]	combination Emax [15]	combination Emax [16]
NC1(C(=O)N[C@@H](CCO)c2ccc(Cl)cc2)CCN(c2ncnc3[nH]ccc23)CC1 [Capivasertib] + COc1nnc2ccc(N3CCC(c4ccc(OCCN5CCN(C)C(=O)[C@H]5C)cc4)CC3)nn12 [AZD5153] (first compound max 10 µM, 7x7, partner max 1 µM)	0.0023	-0.0133	0.0374	0.0396	0.0578	0.032	-0.0395	0.0358	0.0272	0.0177	0.0318	-0.0144	0.0154	0.311	0.746	0.481	0.615	0.998	0.827	0.538
NC1(C(=O)N[C@@H](CCO)c2ccc(Cl)cc2)CCN(c2ncnc3[nH]ccc23)CC1 [Capivasertib] + C[C@@H]1COCCN1C2=NC(=NC(=C2)C3(CC3)[S@](=N)(=O)C)C4=C5C=CNC5=NC=C4 [AZD6738] (first compound max 10 µM, 7x7, partner max 10 µM)	-0.0442	-0.0138	-0.0315	0.0152	-0.0606	-0.0379	-0.036	-0.0279	-0.0748	-0.0643	-0.0088	-0.09	-0.0185	0.39	0.69	0.477	0.81	1	0.938	0.412
NC1(C(=O)N[C@@H](CCO)c2ccc(Cl)cc2)CCN(c2ncnc3[nH]ccc23)CC1 [Capivasertib] + Cn1cnc2c(F)c(Nc3ccc(Br)cc3Cl)c(C(=O)NOCCO)cc21 [Selumetinib] (first compound max 10 µM, 7x7, partner max 10 µM)	0.0036	0.0439	0.0557	-0.0445	0.0399	0.0355	-0.0559	0.0094	-0.0364	0.0644	-0.0299	0.0387	0.0047	0.418	0.921	0.573	0.582	0.998	0.363	0.723
Cc1nc(Nc2ncc(C(=O)Nc3c(C)cccc3Cl)s2)cc(N2CCN(CCO)CC2)n1 [Dasatinib] + CC(=O)Nc1cccc(-n2c(=O)n(C3CC3)c(=O)c3c(Nc4ccc(I)cc4F)n(C)c(=O)c(C)c32)c1 [Trametinib] (first compound max 2 µM, 7x7, partner max 1 µM)	-0.0878	0.0387	0.0399	-0.0795	0.0396	-0.0631	0.0459	0.136	0.0906	-0.0102	0.0155	-0.103	-0.0596	0.306	1	0.712	0.721	0.0542	0.358	0.856
COc1cccc2c1C(=O)c1c(O)c3c(c(O)c1C2=O)C[C@@](O)(C(=O)CO)C[C@@H]3O[C@H]1C[C@H](N)[C@H](O)[C@H](C)O1 [Doxorubicin] + Cc1cc2ncnn2cc1Nc1ncc2c(n1)n(C1CCOCC1)c(=O)n2C [AZD7648] (first compound max 1 µM, 7x7, partner max 10 µM)	0.0371	0.0787	0.0275	0.0828	0.107	0.0644	0.0022	0.0223	0.0843	0.0953	0.0162	-0.0146	0.0256	0.411	0.814	0.201	0.792	0.943	0.978	0.411
COc1cc2ncnc(Nc3ccc(F)c(Cl)c3)c2cc1OCCCN1CCOCC1 [Gefitinib] + CC(C)n1c(=O)n(C)c2cnc3cc(F)c(-c4ccc(OCCCN5CCCCC5)nc4)cc3c21 [AZD1390] (first compound max 10 µM, 7x7, partner max 0.3 µM)	-0.047	-0.0333	-0.0434	-0.0706	-0.013	-0.07	-0.0595	-0.0438	-0.0831	-0.0643	-0.101	-0.0382	-0.0405	0.115	0.0903	0.0242	0.718	0.154	0.348	0.626
CS(=O)(=O)CCNCc1ccc(-c2ccc3ncnc(Nc4ccc(OCc5cccc(F)c5)c(Cl)c4)c3c2)o1 [Lapatinib] + C[C@@H](Oc1cc(-c2cnn(C3CCNCC3)c2)cnc1N)c1c(Cl)ccc(F)c1Cl [Crizotinib] (first compound max 10 µM, 7x7, partner max 10 µM)	-0.0146	0.0033	0.0978	-0.021	-0.0444	-0.0499	-0.0563	-0.0353	-0.034	-0.0827	-0.0252	-0.027	-0.0246	0.614	0.918	0.193	0.876	0.697	0.999	0.964
CC(=O)c1c(C)c2cnc(Nc3ccc(N4CCNCC4)cn3)nc2n(C2CCCC2)c1=O [Palbociclib] + CC1(C)CCC(CN2CCN(c3ccc(C(=O)NS(=O)(=O)c4ccc(NCC5CCOCC5)c([N+](=O)[O-])c4)c(Oc4cnc5[nH]ccc5c4)c3)CC2)=C(c2ccc(Cl)cc2)C1 [Venetoclax] (first compound max 10 µM, 7x7, partner max 1 µM)	-0.0352	-0.0084	0.0208	0.0004	-0.0394	-0.0317	-0.021	-0.0425	-0.0135	0.0627	-0.0515	-0.0901	-0.0377	0.132	0.319	0.0998	0.492	0.0811	0.378	0.13
CC(=O)c1c(C)c2cnc(Nc3ccc(N4CCNCC4)cn3)nc2n(C2CCCC2)c1=O [Palbociclib] + Cc1c2c(nn1C)CSCc1cc(n(C)n1)CSc1cc(c3ccccc3c1)OCCCc1c(C(=O)O)n(C)c3c-2c(Cl)ccc13 [AZD5991] (first compound max 10 µM, 7x7, partner max 1 µM)	-0.0834	0.0332	0.0345	-0.0991	-0.0123	0.0483	-0.072	-0.0445	-0.0215	0.0045	-0.0315	-0.0473	-0.0288	0.203	0.435	0.269	0.501	0.882	0.626	0.217
CC(=O)c1c(C)c2cnc(Nc3ccc(N4CCNCC4)cn3)nc2n(C2CCCC2)c1=O [Palbociclib] + Cn1cnc2c(F)c(Nc3ccc(Br)cc3Cl)c(C(=O)NOCCO)cc21 [Selumetinib] (first compound max 10 µM, 7x7, partner max 10 µM)	0.0253	0.028	0.0982	0.0049	-0.0734	0.0623	-0.014	-0.0153	-0.0054	0.0409	-0.0321	0.0327	-0.0448	0.323	0.935	0.428	0.665	0.0542	0.503	0.397
COc1cccc(OCCCN)c1-c1cc(Nc2cnc(C#N)cn2)n[nH]1 [Prexasertib] + C=CCn1c(=O)c2cnc(Nc3ccc(N4CCN(C)CC4)cc3)nc2n1-c1cccc(C(C)(C)O)n1 [AZD1775] (first compound max 1 µM, partner max 1 µM)	0.0725	0.0708	0.0628	0.0413	0.05	0.0074	0.0054	0.112	0.0222	0.047	0.0518	0.0431	-0.0072	0.765	0.858	0.388	0.974	0.954	1	0.482
COc1cccc(OCCCN)c1-c1cc(Nc2cnc(C#N)cn2)n[nH]1 [Prexasertib] + CCc1c2c(nc3ccc(O)cc13)-c1cc3c(c(=O)n1C2)COC(=O)[C@]3(O)CC [SN-38] (first compound max 1 µM, 7x7, partner max 0.3 µM)	0.0673	0.0019	-0.0694	-0.0767	0.0188	-0.058	0.0335	0.0983	0.0024	-0.078	-0.101	0.0252	0.023	0.736	0.959	0.626	0.982	0.989	1	0.561
COc1cccc(OCCCN)c1-c1cc(Nc2cnc(C#N)cn2)n[nH]1 [Prexasertib] + CN(C)CCCOc1ccc(-c2ccc3ncc4c(c3c2)n(C2CCOCC2)c(=O)n4C)cn1 [AZD0156] (first compound max 1 µM, 7x7, partner max 1 µM)	-0.026	-0.0093	-0.0297	0.0756	0.0084	-0.0098	0.0713	-0.0286	-0.0046	0.0111	0.0558	-0.0009	-0.0075	0.411	0.865	0.406	0.982	0.574	1	0.46
COc1cccc(OCCCN)c1-c1cc(Nc2cnc(C#N)cn2)n[nH]1 [Prexasertib] + C[C@@H]1COCCN1C2=NC(=NC(=C2)C3(CC3)[S@](=N)(=O)C)C4=C5C=CNC5=NC=C4 [AZD6738] (first compound max 1 µM, 7x7, partner max 10 µM)	-0.0218	-0.0381	-0.0113	0.0076	-0.0195	-0.0866	0.0032	-0.0324	-0.0796	-0.0392	-0.0698	-0.0137	0.0201	0.4	0.836	0.337	0.994	0.585	1	0.433
